In ChEMBL document CHEMBL1154019, “Sulfonamides with the N-alkyl-N'-dialkylguanidine moiety as 5-HT7 receptor ligands” (Bioorg Med Chem Lett, 2009):

What was measured:
[1] = molecular target: 5-hydroxytryptamine receptor 2A (Rattus norvegicus, UniProt P14842); test: Binding affinity to 5HT2A receptor in rat cortex; type: tissue-based
[2] = molecular target: T1, 5-hydroxytryptamine receptor 1A (Rattus norvegicus, UniProt P19327); test: Binding affinity to 5HT1A receptor in rat hippocampus; type: tissue-based
T1 sequence (P19327 whole entry): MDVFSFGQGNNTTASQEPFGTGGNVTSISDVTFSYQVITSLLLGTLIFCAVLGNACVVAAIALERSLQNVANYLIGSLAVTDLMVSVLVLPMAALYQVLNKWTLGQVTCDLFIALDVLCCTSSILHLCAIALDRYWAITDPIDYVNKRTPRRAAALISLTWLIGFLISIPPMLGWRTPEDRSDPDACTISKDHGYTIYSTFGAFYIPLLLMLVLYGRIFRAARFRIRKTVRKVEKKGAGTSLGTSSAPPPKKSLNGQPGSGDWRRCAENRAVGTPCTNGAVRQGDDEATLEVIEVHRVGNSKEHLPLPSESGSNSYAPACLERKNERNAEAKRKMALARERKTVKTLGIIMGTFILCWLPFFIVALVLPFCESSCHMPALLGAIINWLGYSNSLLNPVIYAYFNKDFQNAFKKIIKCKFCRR

[3] = molecular target: 5-hydroxytryptamine receptor 7 (Homo sapiens, UniProt P34969); test: Binding affinity to human cloned 5HT7 receptor expressed in HEK293 cells; type: cell-based
[4] = Selectivity of Ki for human 5HT7 receptor to Ki for rat 5HT1A

Sequence of 5-hydroxytryptamine receptor 2A (P14842 whole entry): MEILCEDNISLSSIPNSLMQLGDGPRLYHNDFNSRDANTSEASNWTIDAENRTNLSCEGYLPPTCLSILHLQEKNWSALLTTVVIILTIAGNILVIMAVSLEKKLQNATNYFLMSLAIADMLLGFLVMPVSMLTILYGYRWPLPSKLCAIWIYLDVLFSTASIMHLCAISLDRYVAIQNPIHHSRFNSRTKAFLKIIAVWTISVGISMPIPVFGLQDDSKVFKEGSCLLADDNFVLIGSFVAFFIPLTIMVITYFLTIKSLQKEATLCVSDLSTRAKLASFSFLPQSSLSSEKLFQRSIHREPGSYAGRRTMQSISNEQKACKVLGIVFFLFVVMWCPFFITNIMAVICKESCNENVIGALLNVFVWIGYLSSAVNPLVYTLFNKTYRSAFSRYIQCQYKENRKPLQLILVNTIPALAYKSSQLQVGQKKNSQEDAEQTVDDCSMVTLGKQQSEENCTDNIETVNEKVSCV
Sequence of 5-hydroxytryptamine receptor 7 (P34969 whole entry): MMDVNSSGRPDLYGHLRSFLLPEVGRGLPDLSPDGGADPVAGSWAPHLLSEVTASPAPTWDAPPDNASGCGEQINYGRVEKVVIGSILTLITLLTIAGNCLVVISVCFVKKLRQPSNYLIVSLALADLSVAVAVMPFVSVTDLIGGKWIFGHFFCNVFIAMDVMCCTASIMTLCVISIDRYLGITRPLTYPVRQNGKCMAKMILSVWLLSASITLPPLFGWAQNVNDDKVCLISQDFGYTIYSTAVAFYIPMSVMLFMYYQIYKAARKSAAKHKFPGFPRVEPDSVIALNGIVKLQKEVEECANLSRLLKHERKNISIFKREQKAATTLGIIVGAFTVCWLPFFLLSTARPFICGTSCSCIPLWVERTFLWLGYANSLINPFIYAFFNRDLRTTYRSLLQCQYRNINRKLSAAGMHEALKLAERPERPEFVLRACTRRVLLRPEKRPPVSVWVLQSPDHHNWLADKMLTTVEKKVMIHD

Compound | Ki [1] [nM] | Ki [2] [nM] | Ki [3] [nM] | Ratio Ki [4]
NC(=NCCCCNS(=O)(=O)c1cccc2ccccc12)N1CCc2ccccc2C1 | 195 | 2080 | 198 | 
COc1ccccc1N1CCN(C(=N)NCCCCNS(=O)(=O)c2ccc(C)cc2)CC1 | 340 | 10200 | 140 | 
Cc1cccc(S(=O)(=O)NCCCN=C(N)N2CCC(c3ccccc3)CC2)c1 | 1250 | 17600 | 276 | 
Cc1cccc(S(=O)(=O)NCCN=C(N)N2CCC(C)CC2)c1 | 148 | 1100 | 177 | 
COc1ccccc1N1CCN(C(=N)NCCNS(=O)(=O)c2cccc(C)c2)CC1 |  |  |  | 31
Cc1cccc(S(=O)(=O)NCCCCN=C(N)N2CCC(c3ccccc3)CC2)c1 | 770 | 12000 | 150 | 
Cc1cccc(S(=O)(=O)NCCN=C(N)N2CCC(c3ccccc3)CC2)c1 | 160 | 4550 | 161 | 
O=S(=O)(c1ccccc1)C1(CCCN2CCc3ccccc3C2)CCC1 | 65 | 35 |  | 
COc1ccccc1N1CCN(C(=O)NC(=N)NCc2cccc3ccccc23)CC1 | 150 | 520 |  | 
COc1ccccc1N1CCN(C(N)=NCCCNS(=O)(=O)c2cccc3ccccc23)CC1 | 940 | 9860 | 195 | 
CC1CCN(CCC2CCCN2S(=O)(=O)c2cccc(O)c2)CC1 (single isomer, unassigned) | > 10000 | > 10000 |  | 
CCOc1ccccc1CNC(=N)NC(=O)NC | 400 | > 4000 | 49 | 
COc1ccccc1N1CCN(CCCNS(=O)(=O)c2ccc3ccccc3c2)CC1 | 85 | 4.6 | 20 | 
COc1ccccc1N1CCN(C(N)=NCCNS(=O)(=O)c2cccc(C)c2)CC1 | 1150 | 10400 | 339 | 
